Patent US11350634B2, “Method for preparing biopesticide preparation for preventing and controlling Solenopsis invicta” (GUANGDONG INSTITUTE OF APPLIED […], priority 2017, dated 2022)

What was measured:
[1] = system: Solenopsis invicta worker ants; experiment: Laboratory virulence test of the combination of Beauveria bassiana and sodium chloride (Embodiment 1 method); assay type: in vivo; details: for synergism / effect on the pesticidal effect of Beauveria bassiana: salt added to Beauveria bassiana solution instead of sodium chloride, Embodiment 1 test
Method: In the laboratory virulence test, 5 g of Beauveria bassiana powder formulation was dissolved in 1 L of water and mixed well to give a Beauveria bassiana solution. The used Beauveria bassiana powder formulation contained 20 billion/g of Beauveria bassiana spores. 9 Beauveria bassiana solutions, 100 mL each, were taken from the IL Beauveria bassiana solution, and respectively added with NaCl so that NaCl concentrations in the 9 Beauveria bassiana solutions were: 0 mmol/L, 25 mmol/L, 75 mmol/L, 100 mmol/L, 125 mmol/L, 150 mmol/L, 200 mmol/L, 250 mmol/L, and 300 mmol/L, and thereby Beauveria bassiana/sodium chloride aqueous dispersions were obtained, wherein the Beauveria bassiana spores were present in a concentration of 1×10^8/mL.
The Beauveria bassiana solution, the Beauveria bassiana/sodium chloride aqueous solution, a sodium chloride solution (125 mmol/L), and sterile water were respectively tested for virulence against healthy Solenopsis invicta worker ants, with 3 replicates for each treatment, 1 petri dish in each replicate, and 100 Solenopsis invicta worker ants in each petri dish. […] Data statistical analysis was performed using SPSS 13.0 software, significance testing between samples was performed using the Duncan's method, wherein different lowercase letters indicate a significant difference (P<0.05) in cumulative mortality of the treated Solenopsis invicta.

[2] = system: Solenopsis invicta worker ants; experiment: Laboratory virulence test of the Beauveria bassiana/sodium chloride aqueous dispersion of water dispersible granule formulation (with adjuvants); assay type: in vivo; details: worker ants dipped about 5 seconds, 96 hours after treatment, 1×10^8/mL spores, NaCl alone 125 mmol/L, FIG. 2
Excerpt: A totally 30 g of Beauveria bassiana powder formulation and sodium chloride (wherein a mass ratio of the Beauveria bassiana powder formulation to sodium chloride included 5:1.46, 5:4.38; 5:5.84, 5:7.30, 5:8.77, 5:11.69, 5:14.61 g, and 5:17.53, and the Beauveria bassiana powder formulation contained 20 billion Beauveria bassiana spores per gram), 8 g of wetting agent butylnaphtalenesulfonic acid sodium salt, 18 g of dispersant sodium lignosulfonate, 5 g of disintegrant calcium chloride, 2 g of stabilizer disodium hydrogen phosphate, 5 g of binder sodium polyacrylate, and 32 g of carrier diatomite, were weighed out and mixed according to a method for preparing a water dispersible granule formulation (1. The raw materials were mixed evenly according to the formula. 2. The materials were ground using a sand mill after mixed evenly, and subjected to spray granulation after determined to be acceptable. 3. The products were screened using a vibrating screen after the spray granulation, products with unacceptable appearance were returned to the sand mill to be ground again, and products with acceptable appearance were further subjected to quality inspection wherein products with unacceptable quality were also returned to the sand mill to be ground again. 4. Products with acceptable quality were packaged. 5. […]

Row | Structure (SMILES) | synergism / effect on the pesticidal effect of Beauveria bassiana [1] | 96 h cumulative mortality / pesticidal effect ([1]; worker ants dipped about 5 seconds, 96 hours after treatment, 1×10^8/mL spores, NaCl alone 125 mmol/L, no adjuvants, FIG. 1) | 96 h cumulative mortality / pesticidal effect [2]
1 | [Cl-].[K+] [potassium chloride] | no significant difference |  | 
2 | [Ca+2].[Cl-].[Cl-] [calcium chloride] | no significant difference |  | 
3 | [Cl-].[Cl-].[Mg+2] [magnesium chloride] | no significant difference |  | 
4 | [Cl][Fe]([Cl])[Cl] [ferric chloride] | no significant difference |  | 
5 | [Cl-].[Na+] [NaCl, sodium chloride] |  | no killing effect | no killing effect
